Patent US20220135940A1, “METHOD FOR PRODUCING KIDNEY STRUCTURE HAVING DENDRITICALLY BRANCHED COLLECTING DUCT FROM PLURIPOTENT STEM CELLS” (NATIONAL UNIVERSITY CORPORATION KUMAMOTO UNIVERSITY, priority 2018, published 2022)

How the values were obtained:
mouse ES cells [1] = test: Induction of CXCR4+/KIT+ WD progenitors from mouse ES cells, FACS at day 6.25; format: cell-based
Protocol: (§1) ES cells were differentiated in a serum-free medium as follows. The ES cells were dissociated with Accutase™ (ESGRO) and cultured in a serum-free mouse ES cell differentiation medium. The harvested cells were aggregated in a 96-well U-bottom low cell binding plate at 1,000 cells per aggregate to form embryonic bodies (EBs). After 48 hours (day 2), the EBs were dissociated with Accutase and re-aggregated in a serum-free differentiation medium supplemented with 10 ng/mL human activin A (R & D) (Procedure 1). After 24 hours (day 3), the medium was replaced with a medium containing 0.3 ng/mL human Bmp4 (R & D) and 10 μM CHIR 99021 (Procedure 2). After 36 hours (day 4.5), the medium was replaced with procedure 3 medium containing 0.1 μM retinoic acid, 100 ng/mL human Fgf9 and 10 μM SB431542 (Wako). On day 5.5 (24 hours later), the medium was replaced with a medium containing 0.1 μM retinoic acid, 100 ng/mL human Fgf9 and 5 μM CHIR99021 (“Procedure 4 medium”). The differentiation factors of the Hoxb7-GFP ES cell line are shown in the table below together with the differentiation factors of the Osr1-GFP ES cell line.
On day 6.25, the induced spheroids were harvested and dissociated by incubating in 0.25% trypsin/EDTA at 37° C. for 6 minutes. After blocking in normal mouse serum, cell surface marker (CXCR4/KIT) staining was carried out in a buffer containing 1% BSA, 1×HBSS and 0.035% NaHCO3. The FACS-sorted 3,000 Hoxb7-GFP+/CXCR4+/KIT+ cells were aggregated in a V-bottom 96-well low cell binding plate to form spheroids. Subsequently, these were cultured using the above E8.75 embryonic tissue culture conditions.
(§2) Cell aggregates induced from embryonic tissue or mouse ES cells/human iPS cells were dissociated and blocked with normal mouse serum and then cell surface marker staining was carried out in a buffer containing 1% BSA, 1×HBSS and 0.035% NaHCO3. Data analysis was performed with FlowJo software (Treestar).

[2] = system: sorted Hoxb7-GFP positive E8.75 WD progenitors; test: Maturation culture of sorted E8.75 WD progenitors, marker genes by qRT-PCR; format: cell-based, mouse; conditions: Wnt agonist 3 μM and Fgf9 100 ng/mL
Protocol: For embryonic tissue cultures at E8.75, the region caudal to the heart primordia of 12-15 somite-stage embryos were harvested and Hoxb7-GFP+/Flk1− cells were sorted by FACS. The sorted cells were aggregated in a V-bottom 96-well low cell binding plate at about 1,200 cells per aggregate. It was cultured for the first 24 hours using a medium containing 10 μM Y27632, 0.1 μM retinoic acid, 1 μM CHIR99021, 5 ng/mL human Fgf9 and 10% growth factor reduced Matrigel (“Procedure 5 medium”), then, the spheroids were transferred to “Procedure 6 medium” and “Procedure 7 medium,” and cultured for 24 hours each for differentiation.
(§3) Harvested spheroids or cells were homogenized, and total RNA was isolated using RNeasy Plus Micro Kit (Qiagen), and then a reverse-transcribed with random primers and Superscript III (Invitrogen). Quantitative PCR was carried out using Real-Time PCR system (Takara Bio) and Thunderbird SYBR qPCR Mix (Toyobo). With normalized by β-actin gene, relative mRNA expression levels were analyzed.
As the second procedure, the factors that mature the E8.75WD into the E9.5WD were found as follows. We investigated the factors that trigger maturation of the WD progenitors in the early stage, from embryonic E8.75 to E9.5 stage. At embryonic E8.75 to E9.5 stage, the Hoxb7-GFP positive WD progenitors are first clearly detectable in the anterior body trunk of the embryo (8-10 somite level). […]

human iPS cells [3] = test: AIM induction from human iPS cells (procedure 3), AIM marker genes by quantitative analysis at day 4.5; format: cell-based; conditions: administered at procedure 3, day 4.5
Protocol: (§4) Cells were reaggregated at 10,000 cells per aggregate in a V-bottom 96-well low cell binding plate using a medium containing 10 μM Y27632 and 10 ng/mL human activin A and 1 ng/mL human Bmp4 (“Procedure 1 medium”), to form embryonic bodies (EBs). After 24 hours (day 1), the aggregates were transferred to a U-bottom 96-well low cell binding plate containing a medium containing 10 μM CHIR and 1 ng/mL human Bmp4 (“Procedure 2 medium”). After 36 hours (day 2.5), the medium was replaced with a medium containing 0.1 μM retinoic acid, 100 ng/mL human Fgf9, 100 nM LDN193189 and 100 μM SB431542 (“Procedure 3 medium”). On day 4.5, the medium was replaced with a medium containing 0.1 μM retinoic acid, 5 μM CHIR, 100 ng/mL human Fgf9 and 30 nM LDN193189 (“Procedure 4 medium”).
as §3
The induction of WD from human iPS cells was performed as follows. […] This was confirmed by quantitative analysis at day 4.5 and day 6.25, respectively (FIG. 22).

[4] = system: human iPS cell-derived CXCR4+/KIT+ WD progenitors; test: Maturation culture of sorted human iPS cell-derived CXCR4+/KIT+ WD progenitors, mature WD marker genes; format: cell-based; conditions: continuous administration in addition to mouse WD maturation cocktails, 10% Matrigel
Protocol: On day 6.25, the induced spheroids were harvested and dissociated by incubating in 0.25% trypsin/EDTA for 6 minutes at 37° C. After blocking in normal mouse serum, cell surface marker (CXCR4/KIT) staining was carried out in a buffer containing 1% BSA, 1×HBSS and 0.035% NaHCO3. The FACS-sorted 5,000 of CXCR4+/KIT+ cells were seeded in a V-bottom 96-well low cell binding plate and precipitated by the centrifuge (210 G for 4 minutes). The supernatant was replaced with a medium containing 10 μM Y27632, 0.1 μM retinoic acid, 1 μM CHIR, 5 ng/mL human Fgf9, 100 ng/mL human Fgf1, 10 nM LDN193189 and 10% growth factor reduced Matrigel (“Procedure 5 medium”). On day 8.5, the spheroids were transferred to a medium containing 10 μM Y27632, 0.1 μM retinoic acid, 3 μM CHIR, 5 ng/mL human Fgf9, 1 ng/mL human GDNF, 100 ng/mL human Fgf1, 10 nM LDN193189 and 10% growth factor reduced Matrigel (“Procedure 6 medium”). […]
as §3, with “analyzed. […]” for “analyzed.”

human iPS cells [5] = test: Induction of CXCR4+/KIT+ WD progenitors from human iPS cells, FACS at day 6.25; format: cell-based
Protocol: as §4
On day 6.25, the induced spheroids were harvested and dissociated by incubating in 0.25% trypsin/EDTA for 6 minutes at 37° C. After blocking in normal mouse serum, cell surface marker (CXCR4/KIT) staining was carried out in a buffer containing 1% BSA, 1×HBSS and 0.035% NaHCO3. The FACS-sorted 5,000 of CXCR4+/KIT+ cells were seeded in a V-bottom 96-well low cell binding plate and precipitated by the centrifuge (210 G for 4 minutes). The supernatant was replaced with a medium containing 10 μM Y27632, 0.1 μM retinoic acid, 1 μM CHIR, 5 ng/mL human Fgf9, 100 ng/mL human Fgf1, 10 nM LDN193189 and 10% growth factor reduced Matrigel (“Procedure 5 medium”). On day 8.5, the spheroids were transferred to a medium containing 10 μM Y27632, 0.1 μM retinoic acid, 3 μM CHIR, 5 ng/mL human Fgf9, 1 ng/mL human GDNF, 100 ng/mL human Fgf1, 10 nM LDN193189 and 10% growth factor reduced Matrigel (“Procedure 6 medium”). On day 10.5, the spheroids were transferred to a medium containing 10 μM Y27632, 0.1 μM retinoic acid, 3 μM CHIR, 2 ng/mL human GDNF, 100 ng/mL human Fgf1, 10 nM LDN193189 and 10% growth factor reduce Matrigel (“Procedure 7 medium”).
as §2
Next, the optimal time window for inducing anterior or posterior intermediate mesoderm from the nascent mesoderm was examined. Since the nascent mesoderm population is maintained by the high concentrations of Wnt agonists, the incubation period with Wnt agonists was varied and the subsequent differentiation was applied with conditions specific to the UB or metanephric nephron progenitor cell lineage. The induction efficiency of CXCR4+/KIT+ WD progenitor or ITGA8+/PDGFRA− nephron progenitor cell fraction was examined at day 6.25 or day 12, respectively. […]

mouse ES cells [6] = test: AIM induction from mouse ES cells (procedure 3), AIM marker expression; format: cell-based; conditions: Fgf9 at high concentrations
Protocol: as §1, §3
Next, signaling for the AIM differentiation procedure was hypothesized, which is partially different from that for PIM, based on the gene expression profile minimally conserved, between anterior intermediate mesoderm (AIM) (Osr1+, Pax2+, Pax8+, Emx2+, Lhx1+, Gata3+) and posterior intermediate mesoderm (PIM) (Osr1+, Wtl+, Hoxll+) (Procedure 3 in FIG. 2).

[7] = system: WD sorted from dissociated E9.5 mouse embryos; test: Maturation culture of sorted E9.5 embryonic WD with growth factor combinations, marker genes by qRT-PCR; format: cell-based; conditions: E9.5 WD aggregates, Gdnf added to RA, Wnt agonist and Fgf9
Protocol: The posterior regions were harvested from the forelimbs of 22-26 somatic-stage embryos for embryonic tissue culture at […]. The harvested tissues were dissociated into single cells by incubating in DMEM/10% FBS containing 1 mg/mL Type XI collagenase for 6 minutes at 37° C., followed by treatment with DNase I and 0.25% trypsin at 37° C. for 6 minutes. After blocking in normal mouse serum, cell surface marker (Flk1) staining was carried out. Hoxb7-GFP+/Flk1− cells sorted by FACS were resuspended in a mouse ES cell differentiation media, and seeded in a V-bottom 96-well low cell binding plate (Sumitomo Bakelite, Co., Ltd., Cat #MS-9096V) so that there were about 1,600 cells per well. After the centrifuge (210 G, 4 min), the supernatant media was replaced with a medium containing 10 μM Y27632 (Wako), 0.1 μM retinoic acid, 3 μM CHIR99021, 5 ng/mL human Fgf9 (R & D), 1 ng/mL human GDNF (R & D) and 10% growth factor reduced Matrigel (BD) (“Procedure 6 medium”). […]
as §3, with “analyzed. […]” for “analyzed.”

Cc1c[nH]c(-c2cnc(NCCNc3ccc(C#N)cn3)nc2-c2ccc(Cl)cc2Cl)n1 [CHIR99021, reference compound]
induction of the CXCR4+/KIT+ population (mouse ES cells [1]; procedure 4, removal of the factor from RA, Wnt agonist and Fgf9): dramatically reduced the induction of the CXCR4+/KIT+ population | expression of maturation marker genes (Hnf1b, Wnt9b, Calb1, E-cadherin) [2]: worked inhibitory

c1ccc2c(-c3cnn4cc(-c5ccc(N6CCNCC6)cc5)cnc34)ccnc2c1 [LDN, LDN193189, reference compound]
AIM marker genes expression (human iPS cells [3]): greatly enhanced | expression of the mature WD marker genes [4]: further enhanced the expression of the mature WD marker genes | induction of CXCR4+/KIT+ WD progenitors (human iPS cells [5]; administered at procedure 3, day 6.25): greatly enhanced

NC(=O)c1ccc(-c2nc(-c3ccc4c(c3)OCO4)c(-c3ccccn3)[nH]2)cc1 [SB431542, reference compound]
induction of AIM markers (mouse ES cells [6]): enhanced the AIM marker induction

CC1=C(/C=C/C(C)=C/C=C/C(C)=C/C(=O)O)C(C)(C)CCC1 [retinoic acid, all trans-retinoic acid, reference compound]
induction of AIM markers (mouse ES cells [6]): common inducer for both AIM and PIM induction

Fgf1: fibroblast cell growth factor, human Fgf1
expression of the mature WD marker genes [4]: further enhanced the expression of the mature WD marker genes

B1: Gdnf: glial cell line-derived neurotrophic factor, recombinant human GDNF protein (protein, UniProt P39905 78-211, looked up)
Glial cell line-derived …: SPDKQMAVLPRRERNRQAAAANPENSRGKGRRGQRGKNRGCVLTAIHLNVTDLGLGYETKEELIFRYCSGSCDAAETTYDKILKNLSRNRRLVSDKVGQACCRPIAFDDDLSFLDDNLVYHILRKHSAKRCGCI
Wnt11 expression and bud-like structure formation [7]: successfully induced the Wnt11 expression and bud-like structure formation

B2: Bmp4: BMP signal pathway active substance, human Bmp4 (R & D) (protein, UniProt P12644 293-408, looked up)
Bone morphogenetic protein 4: SPKHHSQRARKKNKNCRRHSLYVDFSDVGWNDWIVAPPGYQAFYCHGDCPFPLADHLNSTNHAIVQTLVNSVNSSIPKACCVPTELSAISMLYLDEYDKVVLKNYQEMVVEGCGCR
UB induction versus MM induction, concentration dependence (mouse ES cells [1]; Bmp4 in procedure 2, activin A in procedure 1): maximized at higher Bmp4 concentrations compared to MM | induction of AIM markers (mouse ES cells [6]): inhibitory to the induction of AIM markers | concentration at which WD progenitor induction peaked (human iPS cells [5]; epiblast patterning stage (day 0 to day 1), combination of activin A and Bmp4): 1 ng/mL | concentration at which UB progenitor cells were most efficiently induced (human iPS cells [5]; mesoderm induction/patterning with CHIR, days 1 to 2.5): 1 ng/mL
